SMILES strings stand for the structures. Several values for one entry are separate records, joined by “and”; a condition that tells them apart may be missing. Equal values may be shown once.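 How tested: cells in 96-well plates exposed to compound for 48 hours at five concentrations. Here, GI50 denotes the concentration required for 50% inhibition of growth. TGI: total growth inhibition.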 A value given as a limit tells only on which side of the number the result lay.

Some test systems named below: RPMI-8226 leukemia; UACC-257 melanoma; U251 CNS; NCI-H522 lung; K-562 leukemia; NCI-H23 lung; CCRF-CEM leukemia; SK-OV-3 ovarian; HL-60(TB) leukemia; HOP-62 NSCLC.
Test in all cases: NCI anticancer screen, dose series, 48 h

Consider `O=C1NC(O)C(c2c[nH]c3ccccc23)=C1c1c[nH]c2ccccc12` (centres undefined), for which the GI50 in the assay on RPMI-8226 leukemia was more than 25 µM; with UACC-257 melanoma, more than 25 µM; in the assay with U251 CNS it was more than 25 µM; with NCI-H522 lung, more than 25 µM; with K-562 leukemia, more than 21.9 µM; in the assay on NCI-H23 lung, more than 25 µM. For the same compound, the GI50 in the assay on CCRF-CEM leukemia, with SK-OV-3 ovarian, in the assay with HL-60(TB) leukemia and with HOP-62 NSCLC was more than 25 µM each time. Besides, the TGI with RPMI-8226 leukemia, in the assay with UACC-257 melanoma, in the assay on U251 CNS, in the assay with NCI-H522 lung, in the assay on K-562 leukemia and in the assay on NCI-H23 lung was more than 25 µM in each case. The TGI with CCRF-CEM leukemia, in the assay with SK-OV-3 ovarian, in the assay on HL-60(TB) leukemia and in the assay on HOP-62 NSCLC was more than 25 µM each time.

Regarding `COc1ncc(-c2ccc3nccc(-c4ccnnc4)c3c2)cc1NS(=O)(=O)c1ccc(F)cc1F`, the GI50 in the assay on RPMI-8226 leukemia was 0.0321 µM and 0.0297 µM; with UACC-257 melanoma, 0.00627 µM and < 0.01 µM; in the assay on U251 CNS it was 0.0194 µM and < 0.0147 µM; in the assay with NCI-H522 lung it was 0.0147 µM and < 0.0104 µM; in the assay with NCI-H23 lung it was 0.029 µM and 0.0174 µM; with CCRF-CEM leukemia, 0.0333 µM and 0.0262 µM. Moreover, the GI50 in the assay with SK-OV-3 ovarian is 0.00188 µM and < 0.01 µM; with HL-60(TB) leukemia, 0.0224 µM and < 0.01 µM; in the assay with HOP-62 NSCLC it was 0.00803 µM and < 0.0122 µM. The TGI was 0.656 µM and 0.963 µM in the assay with RPMI-8226 leukemia; 0.378 µM and 0.0615 µM in the assay on UACC-257 melanoma; > 3.43 µM and 0.923 µM in the assay on U251 CNS; 2.16 µM and 2.58 µM in the assay with NCI-H522 lung; more than 100 µM in the assay with K-562 leukemia; > 8.67 µM and 6.46 µM in the assay on NCI-H23 lung. For the same compound, the TGI in the assay with CCRF-CEM leukemia is 0.706 µM and 4.04 µM; in the assay with SK-OV-3 ovarian, 0.0204 µM and 0.0377 µM; in the assay on HL-60(TB) leukemia, > 4.01 µM and 1.21 µM; with HOP-62 NSCLC, 1.93 µM and 3.02 µM.

As to `O=C(c1ccco1)c1nc2cc(Cl)ccc2[n+]([O-])c1C(F)(F)F`, the GI50 is 10.8 µM in the assay with RPMI-8226 leukemia; 4.07 µM with UACC-257 melanoma; 70.9 µM with U251 CNS; 45.1 µM in the assay on NCI-H522 lung; 22.2 µM with K-562 leukemia; 42 µM in the assay with NCI-H23 lung. Besides, the GI50 in the assay with CCRF-CEM leukemia is 0.0182 µM; with SK-OV-3 ovarian, more than 100 µM; with HL-60(TB) leukemia, 24.3 µM; in the assay with HOP-62 NSCLC, 76.7 µM. Also, the TGI was 44 µM in the assay with RPMI-8226 leukemia; 32.9 µM in the assay on UACC-257 melanoma; more than 100 µM with U251 CNS; more than 100 µM with NCI-H522 lung; 54.3 µM with K-562 leukemia; more than 100 µM in the assay on NCI-H23 lung. For the same compound, the TGI was 0.443 µM with CCRF-CEM leukemia, more than 100 µM with SK-OV-3 ovarian, 46.8 µM in the assay on HL-60(TB) leukemia and more than 100 µM with HOP-62 NSCLC.

Regarding `CC[C@H](Nc1nc(NCc2cnc(C)cc2C)c2ncn(C(C)C)c2n1)[C@@H](C)O`, the GI50 in the assay with RPMI-8226 leukemia was 0.308 µM; in the assay with UACC-257 melanoma, 0.41 µM; in the assay with U251 CNS, 0.333 µM; with NCI-H522 lung, 0.262 µM; in the assay on K-562 leukemia, 0.48 µM; in the assay on NCI-H23 lung, 0.334 µM. Further, the GI50 is 0.326 µM in the assay with CCRF-CEM leukemia, 3.89 µM in the assay with SK-OV-3 ovarian, 0.27 µM with HL-60(TB) leukemia and 0.356 µM with HOP-62 NSCLC. Further, the TGI in the assay with RPMI-8226 leukemia was 14.2 µM; in the assay with UACC-257 melanoma it was more than 100 µM; in the assay with U251 CNS, more than 100 µM; with NCI-H522 lung, 1.31 µM; with K-562 leukemia, more than 100 µM; in the assay with NCI-H23 lung, 2.15 µM. Further, the TGI was more than 100 µM with CCRF-CEM leukemia, more than 100 µM in the assay with SK-OV-3 ovarian, 0.744 µM in the assay on HL-60(TB) leukemia and more than 59.7 µM with HOP-62 NSCLC.

In the case of `CCC1(c2c(F)c(F)c(N)c(F)c2F)CCC(=O)NC1=O` (centres undefined), the TGI with RPMI-8226 leukemia, with UACC-257 melanoma, with U251 CNS, in the assay with NCI-H522 lung, in the assay with K-562 leukemia and in the assay with NCI-H23 lung was more than 100 µM each time. Besides, the TGI with CCRF-CEM leukemia, in the assay on SK-OV-3 ovarian, in the assay with HL-60(TB) leukemia and in the assay on HOP-62 NSCLC was more than 100 µM each time.

Turning to `C[S+](C)CCOC(=O)C(=[N+]=[N-])c1ccc([N+](=O)[O-])cc1`, the TGI in the assay on RPMI-8226 leukemia, with UACC-257 melanoma, with U251 CNS, in the assay with NCI-H522 lung, in the assay on K-562 leukemia and in the assay on NCI-H23 lung was more than 100 µM in each case. Moreover, the TGI in the assay with CCRF-CEM leukemia, in the assay with SK-OV-3 ovarian, in the assay with HL-60(TB) leukemia and in the assay on HOP-62 NSCLC was more than 100 µM throughout.

Consider `O=c1c2ccccc2n(C[C@H]2CO2)c2ccccc12`, for which the GI50 is 1.94 µM with RPMI-8226 leukemia; 2.1 µM with UACC-257 melanoma; 1.82 µM in the assay with U251 CNS; 1.61 µM in the assay on NCI-H522 lung; 2.2 µM with K-562 leukemia; 1.42 µM in the assay with NCI-H23 lung. Moreover, the GI50 in the assay with CCRF-CEM leukemia was 0.771 µM; with SK-OV-3 ovarian, 2.64 µM; in the assay with HL-60(TB) leukemia it was 1.28 µM; in the assay with HOP-62 NSCLC it was 2.13 µM. The TGI was 6.55 µM with RPMI-8226 leukemia; 4.46 µM in the assay with UACC-257 melanoma; 7.3 µM with U251 CNS; 3.74 µM in the assay with NCI-H522 lung; more than 100 µM in the assay on K-562 leukemia; 4.52 µM in the assay on NCI-H23 lung. In addition, the TGI is 21.7 µM with CCRF-CEM leukemia, 7.33 µM in the assay with SK-OV-3 ovarian, 3.29 µM in the assay on HL-60(TB) leukemia and 5.84 µM in the assay with HOP-62 NSCLC.

Consider `Cc1c(-c2c(-c3ccc(F)o3)sc3ncnc(O[C@H](Cc4ccccc4OCc4ccnn4CC(F)(F)F)C(=O)O)c23)ccc(OCCN2CCN(C)CC2)c1Cl`, for which the GI50 was less than 0.0147 µM in the assay on RPMI-8226 leukemia; 5.24 µM in the assay on UACC-257 melanoma; 4.59 µM in the assay on U251 CNS; 0.148 µM in the assay with NCI-H522 lung; 3.71 µM with K-562 leukemia; 2.59 µM with NCI-H23 lung. In addition, the GI50 in the assay with CCRF-CEM leukemia was 0.318 µM; with SK-OV-3 ovarian it was 5.74 µM; with HL-60(TB) leukemia it was 0.0173 µM; with HOP-62 NSCLC, 5.31 µM. Moreover, the TGI with RPMI-8226 leukemia stood at 0.261 µM; in the assay on UACC-257 melanoma, 12.9 µM; with U251 CNS, 10.7 µM; in the assay with NCI-H522 lung, 4.58 µM; with K-562 leukemia it was 14.5 µM; with NCI-H23 lung, 7.6 µM. Further, the TGI in the assay with CCRF-CEM leukemia came out at 9.49 µM; in the assay on SK-OV-3 ovarian it was 14.8 µM; in the assay on HL-60(TB) leukemia it was 0.195 µM; in the assay on HOP-62 NSCLC, 14.3 µM.

Consider `CC1(CO)OC(n2cc(C(=O)NC(=O)OCc3ccccc3)c(=O)[nH]c2=O)CC1O` (centres undefined), for which the TGI in the assay with RPMI-8226 leukemia, with UACC-257 melanoma, with U251 CNS, in the assay with NCI-H522 lung, with K-562 leukemia and in the assay on NCI-H23 lung was more than 100 µM each time. Besides, the TGI in the assay with CCRF-CEM leukemia, in the assay on SK-OV-3 ovarian, in the assay on HL-60(TB) leukemia and in the assay with HOP-62 NSCLC was more than 100 µM throughout.

Regarding `CC1(C)N=C(N)N=C(N)N1c1ccc(OCCCCOc2ccc(S(=O)(=O)F)cc2)c(Cl)c1`, the GI50 is 0.116 µM in the assay on RPMI-8226 leukemia; 0.581 µM in the assay with UACC-257 melanoma; 0.0506 µM in the assay on U251 CNS; 0.16 µM in the assay with NCI-H522 lung; 0.0597 µM with K-562 leukemia; 0.115 µM in the assay with NCI-H23 lung. For the same compound, the GI50 was 0.0794 µM in the assay with CCRF-CEM leukemia, 5.88 µM in the assay on SK-OV-3 ovarian, 0.0595 µM with HL-60(TB) leukemia and 0.269 µM with HOP-62 NSCLC. The TGI in the assay with RPMI-8226 leukemia was 12 µM; in the assay with UACC-257 melanoma, 14.1 µM; in the assay on U251 CNS, 13.6 µM; in the assay on NCI-H522 lung, 16.2 µM; in the assay with K-562 leukemia, 15.8 µM; with NCI-H23 lung, 19.5 µM. Also, the TGI in the assay on CCRF-CEM leukemia came to 17.6 µM; in the assay with SK-OV-3 ovarian, 24.9 µM; with HL-60(TB) leukemia, 13.7 µM; with HOP-62 NSCLC it was 12.9 µM.

`O=C(/C=C/c1cccnc1)NCCCCC1CCCN(C(=O)c2ccccc2)C1` (centres undefined): the GI50 in the assay on RPMI-8226 leukemia was less than 0.01 µM; with UACC-257 melanoma it was more than 76.8 µM; in the assay with U251 CNS it was less than 0.01 µM; in the assay on NCI-H522 lung, less than 0.01 µM; in the assay with K-562 leukemia it was less than 0.01 µM; with NCI-H23 lung, 30.3 µM. Moreover, the GI50 is less than 0.01 µM in the assay with CCRF-CEM leukemia, more than 91.7 µM in the assay with SK-OV-3 ovarian, 44.7 µM with HL-60(TB) leukemia and more than 94.2 µM with HOP-62 NSCLC. Further, the TGI with RPMI-8226 leukemia, with UACC-257 melanoma, in the assay with U251 CNS, in the assay on NCI-H522 lung, in the assay on K-562 leukemia and in the assay on NCI-H23 lung was more than 100 µM each time. For the same compound, the TGI in the assay with CCRF-CEM leukemia, in the assay on SK-OV-3 ovarian, in the assay with HL-60(TB) leukemia and with HOP-62 NSCLC was more than 100 µM throughout.

Regarding `O=C1c2cc3c(cc2-c2c1c1ccc(Cl)cc1c(=O)n2CCCNCCO)OCO3`, the GI50 in the assay with RPMI-8226 leukemia was 0.145 µM; with UACC-257 melanoma, 0.666 µM; in the assay with U251 CNS, 0.0403 µM; with NCI-H522 lung it was 0.0372 µM; in the assay with K-562 leukemia it was 0.108 µM; with NCI-H23 lung, 0.0553 µM. Also, the GI50 in the assay on CCRF-CEM leukemia was 0.0347 µM; in the assay with SK-OV-3 ovarian, 0.212 µM; in the assay on HL-60(TB) leukemia, 0.0367 µM; with HOP-62 NSCLC it was 0.0714 µM. For the same compound, the TGI in the assay with RPMI-8226 leukemia came to 3.27 µM; in the assay on UACC-257 melanoma it was 2.43 µM; in the assay with U251 CNS, 1.4 µM; in the assay on NCI-H522 lung, 1.58 µM; in the assay on K-562 leukemia, 0.355 µM; in the assay with NCI-H23 lung, 1.43 µM. In addition, the TGI in the assay with CCRF-CEM leukemia was 1 µM; in the assay with SK-OV-3 ovarian, 1.74 µM; in the assay with HL-60(TB) leukemia, 1.08 µM; in the assay with HOP-62 NSCLC, 1.73 µM.

(Values after PubChem BioAssay (NCI).)
